Assay [1] in a line: studies of male and female patients suffering from sexual dysfunction. It counts as in vivo, human patients. An excerpt: Accordingly, the instant invention relates to the use of flibanserin, optionally in form of the pharmacologically acceptable acid addition salts thereof for the preparation of a medicament for the treatment of disorders of sexual desire.
The target of assay [2] is T1, 5-HT1A receptor (Homo sapiens, UniProt P08908).
T1 sequence (P08908 1-422): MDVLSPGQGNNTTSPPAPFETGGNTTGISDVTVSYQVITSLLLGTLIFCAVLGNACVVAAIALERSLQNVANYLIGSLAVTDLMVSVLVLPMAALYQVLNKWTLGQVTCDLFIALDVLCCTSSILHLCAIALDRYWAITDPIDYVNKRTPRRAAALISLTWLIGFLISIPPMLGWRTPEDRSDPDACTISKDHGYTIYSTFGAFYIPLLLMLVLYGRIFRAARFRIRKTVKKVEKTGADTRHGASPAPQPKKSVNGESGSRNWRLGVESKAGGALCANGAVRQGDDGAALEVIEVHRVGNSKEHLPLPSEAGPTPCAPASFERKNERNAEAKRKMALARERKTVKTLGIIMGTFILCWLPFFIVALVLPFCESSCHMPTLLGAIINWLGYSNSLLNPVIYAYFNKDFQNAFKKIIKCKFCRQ
Conditions: statement in the background, no value; cited from earlier work.

The subject of assay [3] is 5HT2-receptor. Conditions: statement in the background, no value; cited from earlier work.

For the compound `O=c1[nH]c2ccccc2n1CCN1CCN(c2cccc(C(F)(F)F)c2)CC1` [Flibanserin, 1-[2-(4-(3-trifluoromethyl-phenyl)piperazin-1-yl)ethyl]-2,3-dihydro-1H-benzimidazol-2-one], the “sexual desire enhancing properties” value in assay [1] was “displays sexual desire enhancing properties”. Moreover, in assay [2], the “affinity for the 5-HT1A receptor” value is “shows affinity”. Also, the “affinity for the 5HT2-receptor” value in assay [3] is reported as “shows affinity”.
